Assay results as given in the NIST ThermoML archive (doi:10.1007/s10765-010-0766-0).
Values joined by “and” are separate entries in the source; they are usually repeats but may differ in a detail not shown here. Equal entries are not always repeated.

Experiment: wn = mass fraction of the nth substance listed
Details: Liquid, Pycnometric method, w2 = 0.4981

FC(F)C(F)(F)F [pentafluoroethane] + FCF
Details	mass density
277.15 K, 11982 kPa	1205.5 kg/m3
278.15 K, 12826 kPa	1205.4 kg/m3
279.15 K, 13669 kPa	1205.2 kg/m3
280.15 K, 14512 kPa	1205.1 kg/m3
281.15 K, 15355 kPa	1204.9 kg/m3
282.15 K, 16198 kPa	1204.8 kg/m3
283.15 K, 17040 kPa	1204.6 kg/m3
284.15 K, 17881 kPa	1204.5 kg/m3
285.15 K, 18722 kPa	1204.3 kg/m3
286.15 K, 19563 kPa	1204.2 kg/m3
287.15 K, 20403 kPa	1204 kg/m3
288.15 K, 21239 kPa	1203.8 kg/m3
289.15 K, 22077 kPa	1203.7 kg/m3
291.15 K, 23750 kPa	1203.4 kg/m3
292.15 K, 24585 kPa	1203.2 kg/m3
293.15 K, 25420 kPa	1203 kg/m3
294.15 K, 26254 kPa	1202.9 kg/m3
295.15 K, 27085 kPa	1202.7 kg/m3
296.15 K, 27917 kPa	1202.5 kg/m3
297.15 K, 8118 kPa	1113.5 kg/m3
297.15 K, 28747 kPa	1202.3 kg/m3
298.15 K, 29575 kPa	1202.2 kg/m3
299.15 K, 9422 kPa	1113.3 kg/m3
300.15 K, 10072 kPa	1113.2 kg/m3
300.15 K, 10089 kPa	1113.1 kg/m3
301.15 K, 10723 kPa	1113.1 kg/m3
301.15 K, 10737 kPa	1113 kg/m3
302.15 K, 11374 kPa	1113 kg/m3
302.15 K, 11385 kPa	1112.9 kg/m3
303.15 K, 12024 kPa	1112.9 kg/m3
303.15 K, 12032 kPa	1112.8 kg/m3
304.15 K, 12672 kPa	1112.8 kg/m3
304.15 K, 12680 kPa	1112.7 kg/m3
305.15 K, 13320 kPa	1112.6 kg/m3
305.15 K, 13327 kPa	1112.5 kg/m3
306.15 K, 13970 kPa	1112.5 kg/m3
306.15 K, 13973 kPa	1112.4 kg/m3
307.15 K, 14620 kPa	1112.4 kg/m3 and 1112.3 kg/m3
308.15 K, 15268 kPa	1112.3 kg/m3 and 1112.2 kg/m3
309.15 K, 15915 kPa	1112.1 kg/m3
309.15 K, 15917 kPa	1112.1 kg/m3
310.15 K, 16562 kPa	1111.9 kg/m3
310.15 K, 16564 kPa	1112 kg/m3
311.15 K, 17208 kPa	1111.8 kg/m3
311.15 K, 17212 kPa	1111.9 kg/m3
312.15 K, 17853 kPa	1111.7 kg/m3
312.15 K, 17859 kPa	1111.7 kg/m3
313.15 K, 18499 kPa	1111.6 kg/m3
313.15 K, 18506 kPa	1111.6 kg/m3
314.15 K, 19144 kPa	1111.4 kg/m3
314.15 K, 19153 kPa	1111.5 kg/m3
315.15 K, 19788 kPa	1111.3 kg/m3
315.15 K, 19798 kPa	1111.3 kg/m3
316.15 K, 20432 kPa	1111.2 kg/m3
316.15 K, 20443 kPa	1111.2 kg/m3
317.15 K, 21075 kPa	1111 kg/m3
317.15 K, 21088 kPa	1111.1 kg/m3
318.15 K, 21719 kPa	1110.9 kg/m3
318.15 K, 21733 kPa	1110.9 kg/m3
319.15 K, 22362 kPa	1110.7 kg/m3
319.15 K, 22377 kPa	1110.8 kg/m3
320.15 K, 23005 kPa	1110.6 kg/m3
320.15 K, 23021 kPa	1110.7 kg/m3
321.15 K, 23648 kPa	1110.5 kg/m3
321.15 K, 23665 kPa	1110.5 kg/m3
322.15 K, 24289 kPa	1110.3 kg/m3
322.15 K, 24307 kPa	1110.4 kg/m3
323.15 K, 24930 kPa	1110.2 kg/m3
323.15 K, 24949 kPa	1110.3 kg/m3
324.15 K, 25571 kPa	1110 kg/m3
324.15 K, 25590 kPa	1110.1 kg/m3
325.15 K, 26210 kPa	1109.9 kg/m3
325.15 K, 26231 kPa	1110 kg/m3
326.15 K, 26850 kPa	1109.8 kg/m3
326.15 K, 26871 kPa	1109.8 kg/m3
327.15 K, 27488 kPa	1109.6 kg/m3
327.15 K, 27511 kPa	1109.7 kg/m3
328.15 K, 28127 kPa	1109.4 kg/m3
328.15 K, 28150 kPa	1109.5 kg/m3
329.15 K, 5865 kPa	921.2 kg/m3
329.15 K, 5904 kPa	921.4 kg/m3
329.15 K, 28764 kPa	1109.3 kg/m3
329.15 K, 28790 kPa	1109.4 kg/m3
330.15 K, 6231 kPa	921.1 kg/m3
330.15 K, 6255 kPa	921.2 kg/m3
330.15 K, 6269 kPa	921.3 kg/m3
330.15 K, 29402 kPa	1109.1 kg/m3
330.15 K, 29426 kPa	1109.2 kg/m3
331.15 K, 6598 kPa	921 kg/m3
331.15 K, 6620 kPa	921.1 kg/m3
331.15 K, 6635 kPa	921.2 kg/m3
331.15 K, 30065 kPa	1109.1 kg/m3
332.15 K, 6965 kPa	921 kg/m3
332.15 K, 6987 kPa	921 kg/m3
332.15 K, 7002 kPa	921.1 kg/m3
333.15 K, 7333 kPa	920.9 kg/m3
333.15 K, 7355 kPa	921 kg/m3
333.15 K, 7370 kPa	921.1 kg/m3
334.15 K, 7700 kPa	920.8 kg/m3
334.15 K, 7723 kPa	920.9 kg/m3
334.15 K, 7736 kPa	921 kg/m3
335.15 K, 8069 kPa	920.7 kg/m3
335.15 K, 8090 kPa	920.8 kg/m3
335.15 K, 8104 kPa	920.9 kg/m3
336.15 K, 8438 kPa	920.7 kg/m3
336.15 K, 8457 kPa	920.7 kg/m3
336.15 K, 8472 kPa	920.8 kg/m3
337.15 K, 8807 kPa	920.6 kg/m3
337.15 K, 8826 kPa	920.6 kg/m3
337.15 K, 8840 kPa	920.8 kg/m3
338.15 K, 9176 kPa	920.5 kg/m3
338.15 K, 9194 kPa	920.5 kg/m3
338.15 K, 9209 kPa	920.7 kg/m3
339.15 K, 9546 kPa	920.4 kg/m3
339.15 K, 9563 kPa	920.4 kg/m3
339.15 K, 9579 kPa	920.6 kg/m3
340.15 K, 9916 kPa	920.3 kg/m3
340.15 K, 9933 kPa	920.3 kg/m3
340.15 K, 9949 kPa	920.5 kg/m3
341.15 K, 10286 kPa	920.3 kg/m3
341.15 K, 10302 kPa	920.2 kg/m3
341.15 K, 10320 kPa	920.4 kg/m3
342.15 K, 10657 kPa	920.2 kg/m3
342.15 K, 10672 kPa	920.1 kg/m3
342.15 K, 10691 kPa	920.4 kg/m3
343.15 K, 11028 kPa	920.1 kg/m3
343.15 K, 11043 kPa	920.1 kg/m3
343.15 K, 11061 kPa	920.3 kg/m3
344.15 K, 11399 kPa	920.1 kg/m3
344.15 K, 11413 kPa	920 kg/m3
344.15 K, 11431 kPa	920.2 kg/m3
345.15 K, 6187 kPa	774 kg/m3
345.15 K, 11770 kPa	920 kg/m3
345.15 K, 11784 kPa	919.9 kg/m3
345.15 K, 11802 kPa	920.1 kg/m3
346.15 K, 6420 kPa	774.1 kg/m3
346.15 K, 12143 kPa	919.9 kg/m3
346.15 K, 12155 kPa	919.8 kg/m3
346.15 K, 12174 kPa	920.1 kg/m3
347.15 K, 6655 kPa	774 kg/m3
347.15 K, 6657 kPa	773.9 kg/m3
347.15 K, 12515 kPa	919.8 kg/m3
347.15 K, 12527 kPa	919.7 kg/m3
347.15 K, 12547 kPa	920 kg/m3
348.15 K, 6890 kPa	773.9 kg/m3
348.15 K, 6893 kPa	773.9 kg/m3
348.15 K, 12887 kPa	919.8 kg/m3
348.15 K, 12899 kPa	919.6 kg/m3
348.15 K, 12919 kPa	919.9 kg/m3
349.15 K, 7127 kPa	773.9 kg/m3
349.15 K, 7130 kPa	773.8 kg/m3
349.15 K, 13259 kPa	919.7 kg/m3
349.15 K, 13271 kPa	919.6 kg/m3
349.15 K, 13292 kPa	919.8 kg/m3
350.15 K, 7364 kPa	773.8 kg/m3
350.15 K, 7368 kPa	773.8 kg/m3
350.15 K, 13631 kPa	919.6 kg/m3
350.15 K, 13643 kPa	919.5 kg/m3
350.15 K, 13664 kPa	919.7 kg/m3
351.15 K, 7602 kPa	773.8 kg/m3
351.15 K, 7606 kPa	773.7 kg/m3
351.15 K, 14004 kPa	919.5 kg/m3
351.15 K, 14015 kPa	919.4 kg/m3
351.15 K, 14036 kPa	919.6 kg/m3
352.15 K, 7841 kPa	773.7 kg/m3
352.15 K, 7845 kPa	773.6 kg/m3
352.15 K, 14377 kPa	919.4 kg/m3
352.15 K, 14387 kPa	919.3 kg/m3
352.15 K, 14409 kPa	919.6 kg/m3
353.15 K, 8080 kPa	773.7 kg/m3
353.15 K, 8084 kPa	773.6 kg/m3
353.15 K, 14750 kPa	919.3 kg/m3
353.15 K, 14761 kPa	919.2 kg/m3
353.15 K, 14783 kPa	919.5 kg/m3
354.15 K, 8320 kPa	773.6 kg/m3
354.15 K, 8324 kPa	773.5 kg/m3
354.15 K, 15123 kPa	919.2 kg/m3
354.15 K, 15133 kPa	919.1 kg/m3
354.15 K, 15157 kPa	919.4 kg/m3
355.15 K, 8560 kPa	773.6 kg/m3
355.15 K, 8565 kPa	773.5 kg/m3
355.15 K, 15496 kPa	919.1 kg/m3
355.15 K, 15507 kPa	919 kg/m3
355.15 K, 15531 kPa	919.3 kg/m3
356.15 K, 8801 kPa	773.5 kg/m3
356.15 K, 8806 kPa	773.4 kg/m3
356.15 K, 15869 kPa	919.1 kg/m3
356.15 K, 15880 kPa	919 kg/m3
356.15 K, 15904 kPa	919.2 kg/m3
